According to patent publication US20080318892A1, “METHODS AND FORMULATIONS FOR PROTECTING CELLS, AND FOR TREATING DISEASES AND CONDITIONS BY OPTIMIZING THE INTRACELLULAR CONCENTRATION OF NAD” (priority 2007, published 2008):

How the values were obtained:
HITC6 SMCs = assay: Senescence-associated beta-galactosidase activity / senescence-free survival; type: cell-based, human
Method: Senescence-associated β-Galatosidase Activity Assay. SMCs on glass coverslips at approximately 70% confluence were fixed in 2% formaldehyde/0.2% glutaraldehyde in PBS for 3 minutes and incubated with X-gal-containing reaction mixture, as previously described (Dimri, 1995). Washed cells were stained with Hoechst 33258 (2.5 μg/ml) and the proportion of senescence-associated β-galactosidase (SA β-Gal)-positive cells quantified from 10 microscope fields of view (Olympus BX51, ×20 objective, approximately 1200 cells). Senescence-free survival was determined using Kaplan-Meier analysis of survival vs. replicative age.
Senescence-associated Beta-galactosidase Activity. Senescence-associated beta-galactosidase (SA-β-gal) activity was determined as previously described (Dimri et al, 1995). Briefly, SMCs were fixed in PBS containing 2% formaldehyde/0.2% glutaraldehyde for 3 min at room temperature. Fixed cells were then incubated for 4-6 h at 37° C. with SA-β-gal stain solution containing 150 mM NaCl, 2 mM MgCl, 40 mM citrate, 5 mM potassium ferrocyanide, 5 mM potassium ferricyanide, and 1 mg/ml of 5-bromo-4-chloro-3-indolyl-β-D-galactopyranoside (X-gal) (Invitrogen, Carlsbad, Calif., USA), at pH 6.0. SMCs were counterstained with 2.5 μg/ml Hoechst 33258 to detect cell nuclei. The proportion of SA-β-gal activity positive cells was quantified using light and fluorescence microscopy (Olympus BX51, Center Valley, Pa., USA).

[1] = test system: fibroblasts derived from a subject with HGPS; assay: Replicative lifespan of HGPS fibroblasts; type: cell-based, human; settings: HGPS fibroblasts transduced with Nampt cDNA
Method: Cell Culture. Experiments were performed using primary human vascular SMCs derived by outgrowth from fragments of internal thoracic artery and the HITC6 SMC clonal line, also originally generated from the human internal thoracic artery (Li, 2001). Derman fibroblasts from an individual with Hutchinson-Gilford Progeria Syndrome (HGPS) were obtained from Coreill Cell Repository.
To quantify replication, cells were plated at 4500 cells/cm^2 and growth medium with 10% FBS was changed every two days until cells reached 90-95% confluence. Harvested cells were counted from triplicate plates and the number of population doublings was calculated based on: [log10(number of cells harvested)−log10(number of cells seeded)]/[…] (Fukuhara, 2005). Population growth curves were compared using both nonlinear regression and two-way analysis of variance.

## PBEF: 52-55 kD protein, rate-limiting enzyme for NAD+ biosynthesis from nicotinamide; tested by retroviral cDNA overexpression in cells
HITC6 SMCs; PBEF-overexpressing SMCs, p<0.0001
  senescence-free survival (Kaplan-Meier) vs vector-infected cells: markedly extended
HITC6 SMCs; late-passage (37th) PBEF-overexpressing SMCs, p=0.003
  reduction in senescent SMCs: 19±2%
[1]
  cell lifespan extension: also seen
